This note sets out measurements from US12215085B2 (priority 2019, dated 2025).

Data set [1] can be described thus: Dynamic moisture sorption (DVS) hygroscopicity. It counts as physicochemical. As to conditions: 25° C.; begins to significantly absorb water at 90% relative humidity. As for the experimental part:
In order to evaluate the stability of Crystal Form A under different humidity conditions, a dynamic moisture sorption (DVS) test was carried out on the sample of Crystal Form A under the constant temperature condition of 25° C.

The test system of a further data set is normal anesthetized dogs. The experiment in a line: General pharmacological indexes of normal anesthetized dog. The class given is in vivo. As to conditions: 0.8, 1.6 and 3.2 mg/kg. From the text:
Meanwhile, the influence of Crystal Form A of octahydroaminoacridine succinate on the general pharmacological indexes of the normal anesthetized dog was observed.

Turning to `Nc1c2c(nc3c1CCCC3)CCCC2.O=C(O)CCC(=O)O` [Crystal Form A, 9-amino-1,2,3,4,5,6,7,8-octahydroacridine succinate], the DVS weight gain entry in data set [1] is on record as “up to 5.2%”. Besides, in the data set with normal anesthetized dogs, the “respiratory frequency, respiratory amplitude, arterial blood pressure, heart rate and electrocardiogram” value is recorded as “no obvious influence”.
